Paper PMC11467779, “New anti-ovarian cancer quinolone derivatives acting by modulating microRNA processing machinery” (RSC Medicinal Chemistry, 2024)

Legend:
[1] = tested on: SKOV-3 cell line; test: Antiproliferative effect against the SKOV-3 cell line (GI50, cell count); format: cell-based, human
Protocol: (§1) SKOV-3, A2780 and A2780 CIS were cultured and maintained, as previously described,[50] at 37 °C in RPMI 1640 medium (Euroclone) supplemented with 10% fetal bovine serum (FBS; Euroclone), L-glutamine and penicillin/streptomycin (SIGMA-ALDRICH). OVCA433, HEK-293T, HeLa, HCCLM3, SK-Hep-1, MCF-7, A549 and HCT-116 cells were maintained in DMEM medium (Euroclone) containing 10% FBS (Euroclone), L-glutamine and penicillin/streptomycin (SIGMA-ALDRICH). Wi-38 cells were cultured in DMEM medium (Euroclone) supplemented with 10% FBS (Euroclone), L-glutamine and penicillin/streptomycin (SIGMA-ALDRICH), and 1% non-essential amino acids (NEAA; Euroclone). The cultures were maintained in a constant temperature incubator at 37 °C with 5% CO2. […] Once cell adhesion had been promoted, the compounds were added to the culture medium. After 72 hours of treatment, the cells were counted, and the data analyzed by linear regression. Each experiment was carried out three times in triplicate and three separate cell counts were made for each sample. […] Afterwards, the concentration range was narrowed to the relative value obtained in the first evaluation in order to obtain an accurate value.

[2] = target: T1, hTopII (Homo sapiens, UniProt P11388); test: Detection of hTOP2α cleavage complexes (cleavage assay); format: cell-based; conditions: 100 μM
T1 construct: endogenous in cells
T1 sequence (P11388 whole entry): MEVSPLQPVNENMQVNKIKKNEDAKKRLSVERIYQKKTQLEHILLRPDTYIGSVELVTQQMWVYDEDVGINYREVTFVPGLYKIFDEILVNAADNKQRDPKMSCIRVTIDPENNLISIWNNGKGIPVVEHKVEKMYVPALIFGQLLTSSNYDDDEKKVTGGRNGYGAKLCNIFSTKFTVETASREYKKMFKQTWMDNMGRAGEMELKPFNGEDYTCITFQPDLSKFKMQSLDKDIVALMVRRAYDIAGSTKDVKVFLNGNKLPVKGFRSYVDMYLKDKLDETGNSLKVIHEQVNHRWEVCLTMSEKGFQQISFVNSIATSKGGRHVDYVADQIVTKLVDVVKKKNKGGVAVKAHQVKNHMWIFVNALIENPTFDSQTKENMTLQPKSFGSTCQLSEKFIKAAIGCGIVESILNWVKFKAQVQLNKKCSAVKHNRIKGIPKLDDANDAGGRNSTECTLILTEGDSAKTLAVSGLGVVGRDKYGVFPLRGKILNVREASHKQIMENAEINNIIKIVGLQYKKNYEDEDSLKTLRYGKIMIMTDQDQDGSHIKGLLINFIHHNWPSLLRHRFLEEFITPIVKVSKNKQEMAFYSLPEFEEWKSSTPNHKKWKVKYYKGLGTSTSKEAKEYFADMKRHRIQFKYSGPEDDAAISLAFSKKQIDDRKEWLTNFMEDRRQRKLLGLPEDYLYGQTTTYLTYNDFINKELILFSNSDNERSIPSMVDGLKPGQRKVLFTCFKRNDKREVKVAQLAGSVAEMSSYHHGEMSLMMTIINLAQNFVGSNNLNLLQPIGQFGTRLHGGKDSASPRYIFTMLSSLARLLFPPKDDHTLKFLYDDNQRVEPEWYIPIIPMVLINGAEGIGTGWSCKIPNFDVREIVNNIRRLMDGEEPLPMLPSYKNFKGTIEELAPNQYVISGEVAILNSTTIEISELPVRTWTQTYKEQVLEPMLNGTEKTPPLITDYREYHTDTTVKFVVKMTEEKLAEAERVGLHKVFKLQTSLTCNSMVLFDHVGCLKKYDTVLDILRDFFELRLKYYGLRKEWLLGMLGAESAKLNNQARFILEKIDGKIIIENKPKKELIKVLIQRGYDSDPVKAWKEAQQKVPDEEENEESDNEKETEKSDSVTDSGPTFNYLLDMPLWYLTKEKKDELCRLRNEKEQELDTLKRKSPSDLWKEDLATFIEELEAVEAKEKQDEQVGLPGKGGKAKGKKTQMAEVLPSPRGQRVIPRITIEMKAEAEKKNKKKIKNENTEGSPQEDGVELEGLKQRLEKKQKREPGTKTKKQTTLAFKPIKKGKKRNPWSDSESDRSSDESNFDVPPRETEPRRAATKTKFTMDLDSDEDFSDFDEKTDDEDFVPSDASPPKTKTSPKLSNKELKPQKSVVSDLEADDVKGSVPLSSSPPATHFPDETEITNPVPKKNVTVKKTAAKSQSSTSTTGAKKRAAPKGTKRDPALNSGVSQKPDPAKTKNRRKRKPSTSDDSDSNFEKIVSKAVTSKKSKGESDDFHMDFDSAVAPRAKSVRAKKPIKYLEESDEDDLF
Protocol: (§2) After compound treatments, 1 × 10^6 human cells in 35 mm dish per sample were washed with 1× phosphate-buffered saline (PBS) and lysed with 600 μL of DNAzol (Invitrogen), followed by precipitation with 300 μL of 200 proof ethanol. The nucleic acids were collected, washed with 75% ethanol, resuspended in 200 μL of TE buffer, and then heated at 65 °C for 15 min, followed by shearing with sonication (40% output for 10 s pulse and 10 s rest for four times). The samples were centrifuged at 15 000 rpm for 5 min at 4 °C, and the supernatant were collected. 1 μL of each sample was removed for spectrophotometric measurement of absorbance at 260 nm to quantitate DNA content (NanoDrop). 2 μg of each sample was subjected to slot-blot for immunoblotting using anti-hTOP1 antibody (BD Pharmingen, 556597) and anti-hTOP2α antibody (Santa Cruz biotechnology, 365916).[51]

[3] = target: T2, hTopI (Homo sapiens, UniProt P11387); test: Detection of hTOP1 cleavage complexes (cleavage assay); format: cell-based; conditions: 100 μM
T2 construct: endogenous in cells
T2 sequence (P11387 whole entry): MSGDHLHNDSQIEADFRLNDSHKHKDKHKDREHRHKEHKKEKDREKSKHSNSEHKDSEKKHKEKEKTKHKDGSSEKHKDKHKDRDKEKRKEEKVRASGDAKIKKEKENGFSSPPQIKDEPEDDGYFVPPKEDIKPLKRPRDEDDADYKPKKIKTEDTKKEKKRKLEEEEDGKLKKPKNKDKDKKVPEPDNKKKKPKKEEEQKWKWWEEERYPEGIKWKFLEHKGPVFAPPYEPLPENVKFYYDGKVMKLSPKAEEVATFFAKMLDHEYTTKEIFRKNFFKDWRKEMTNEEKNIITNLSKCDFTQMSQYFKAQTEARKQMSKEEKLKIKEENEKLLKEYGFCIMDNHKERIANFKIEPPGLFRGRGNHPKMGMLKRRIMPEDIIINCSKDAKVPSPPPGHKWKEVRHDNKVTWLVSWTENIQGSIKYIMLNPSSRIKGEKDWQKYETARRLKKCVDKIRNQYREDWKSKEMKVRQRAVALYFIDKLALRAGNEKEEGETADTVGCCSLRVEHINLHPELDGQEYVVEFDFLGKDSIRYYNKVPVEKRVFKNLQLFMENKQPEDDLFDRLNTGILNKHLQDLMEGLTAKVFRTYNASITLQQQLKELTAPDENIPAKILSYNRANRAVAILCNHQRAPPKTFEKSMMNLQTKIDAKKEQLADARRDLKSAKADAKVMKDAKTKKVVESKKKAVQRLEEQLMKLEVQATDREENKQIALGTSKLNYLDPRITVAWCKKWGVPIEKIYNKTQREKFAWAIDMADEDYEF
Protocol: as §2

[4] = Cytotoxicity against non-tumor Wi-38 cells (CC50, cell count); format: cell-based; conditions: human, Wi-38 cells (non-tumor), 50% cytotoxicity concentration, 72 hours of treatment
Protocol: as §1

[5] = tested on: miRNA processing / RNAi; design: method as in PMID 18641635; conditions: cited from earlier work
[6] = tested on: cisplatin-resistant A2780 cells (A2780 CIS); test: Viable cells of cisplatin-resistant A2780 (A2780 CIS) treated with 33, cisplatin or both; format: cell-based, human; conditions: cisplatin 1 μM, 48 hours
Protocol: A2780 and SKOV-3 cells were treated with 50 μM of 33 for 72 h before RNA and protein extraction and expression analyses. A2780 and A2780 CIS were treated with 33 (30 μM) and/or cisplatin (1 μM, Sigma-Aldrich) for 48 hours while MCF-7, A549 and HCT-116 were treated with 33 (30 μM) for 72 hours. Total cell number and viability have been assessed using Trypan Blue Solution (Thermo Fisher Scientific) and Countess™ 3 Automated Cell Counter (Thermo Fisher Scientific).

[7] = 50% cell growth inhibition, 72 hours of treatment, cell count, ND = activity not dose dependent
[8] = Homo sapiens, SK-OV-3, 72 h, 50% cell growth inhibition, 72 hours of treatment, cell count, ND = activity not dose dependent

Row | SMILES | GI50 [1, 8] | CC50 at 72 h [4] | also measured
1 | Cc1c(N2CCc3ccccc3C2)c(N)cc2c(=O)c(C(=O)O)cn(C3CC3)c12 [Compound 5] | 38 µM | 38.5 ± 29 µM | GI50 [1, 7]: 37.7 ± 3.38 µM; GI50 SKOV-3, fold lower than enoxacin ([1]; versus enoxacin): about 3 fold; trapping/inhibition of hTopII (cleavage assay) [2]: did not trap human topoisomerases; trapping/inhibition of hTopI (cleavage assay) [3]: did not trap human topoisomerases
2 | NC(=O)c1cn(C2CC2)c2cc(N3CCc4ccccc4C3)c(N)cc2c1=O [Compound 17, 6-Amino-1-cyclopropyl-7-(3,4-dihydroisoquinolin-2(1H)-yl)-4-oxo-1,4-dihydroquinoline-3-carboxamide] | – | – | GI50 SKOV-3 [1, 7]: completely inactive
3 | Nc1cc2c(=O)c(C(=O)O)cn(C3CC3)c2cc1N1CCc2sccc2C1 [Compound 21, 6-Amino-1-cyclopropyl-7-(6,7-dihydrothieno[3,2-c]pyridin-5(4H)-yl)-4-oxo-1,4-dihydroquinoline-3-carboxylic acid] | 23.7 ± 1.02 µM | 103 ± 15.5 µM | –
4 | O=C(O)c1cn(C2CC2)c2cc(N3CCNCC3)c(F)cc2c1=O [ciprofloxacin] | – | – | RNAi enhancer / SMER effect [5]: very weak SMER
5 | Nc1cc2c(=O)c(C(=O)O)cn(C3CC3)c2cc1N1CCc2ccccc2C1 [Compound 15, 6-Amino-1-cyclopropyl-7-(3,4-dihydroisoquinolin-2(1H)-yl)-4-oxo-1,4-dihydroquinoline-3-carboxylic acid] | 13.2 ± 1.13 µM | 36.3 ± 8.86 µM | –
6 | Nc1cc2c(=O)c(C(=O)O)cn(C3CC3)c2cc1N1CCc2nccnc2C1 [Compound 19, 6-Amino-1-cyclopropyl-7-(7,8-dihydropyrido[3,4-b]pyrazin-6(5H)-yl)-4-oxo-1,4-dihydroquinoline-3-carboxylic acid] | 104 ± 2.03 µM | – | –
7 | Nc1cc2c(=O)c(C(=O)O)cn(C3CC3)c2cc1N1CCc2ncncc2C1 [Compound 18, 6-Amino-1-cyclopropyl-7-(7,8-dihydropyrido[4,3-d]pyrimidin-6(5H)-yl)-4-oxo-1,4-dihydroquinoline-3-carboxylic acid] | 152 ± 3.05 µM | – | –
8 | CCn1cc(C(=O)O)c(=O)c2cc(N)c(N3CCc4ccccc4C3)c(C)c21 [Compound 11, 6-Amino-7-(3,4-dihydroisoquinolin-2(1H)-yl)-1-ethyl-8-methyl-4-oxo-1,4-dihydroquinoline-3-carboxylic acid] | 13.1 ± 1.29 µM | 53.5 ± 20.6 µM | fold more toxic against tumor cells (CC50 Wi-38 vs GI50 SKOV-3) ([1]; SKOV-3 versus Wi-38): approximately 4 fold
9 | Cc1c(NCCN2CCCCC2)c(N)cc2c(=O)c(C(=O)O)cn(C3CC3)c12 [Compound 14, 6-Amino-1-cyclopropyl-8-methyl-4-oxo-7-[(2-piperidin-1-ylethyl)amino]-1,4-dihydroquinoline-3-carboxylic acid] | 103 ± 21.6 µM | – | –
10 | CN1CCN(c2c(F)cc3c(=O)c(C(=O)O)cn4c3c2SCC4)CC1 [Compound 10, rufloxacin, reference compound] | 100 µM | – | –
11 | CCn1cc(C(=O)O)c(=O)c2cc(N)c(N3CCc4ccccc4C3)cc21 [Compound 16, 6-Amino-7-(3,4-dihydroisoquinolin-2(1H)-yl)-1-ethyl-4-oxo-1,4-dihydroquinoline-3-carboxylic acid] | 5.44 ± 0.13 µM | 8.19 ± 14.3 µM | –
12 | Cn1cc(C(=O)O)c(=O)c2cc(N)c(N3CCN(c4nccs4)CC3)cc21 [Compound 8] | 50 µM | – | –
13 | Nc1cc2c(=O)c(C(=O)O)cn(C3CC3)c2cc1N1CCNc2ccccc21 [Compound 20, 6-Amino-1-cyclopropyl-7-(3,4-dihydroquinoxalin-1(2H)-yl)-4-oxo-1,4-dihydroquinoline-3-carboxylic acid] | 65.4 ± 24.3 µM | – | –
14 | CCn1cc(C(=O)O)c(=O)c2cc(F)c(N3CCC(c4ccccc4)CC3)nc21 [Compound 30, 1-Ethyl-6-fluoro-4-oxo-7-(4-phenylpiperidin-1-yl)-1,4-dihydro-1,8-naphthyridine-3-carboxylic acid] | 8.34 ± 1.28 µM | 4.65 ± 5.96 µM | –
15 | Nc1cc2c(=O)c(C(=O)O)cn(C3CC3)c2cc1N1Cc2ccccc2C[C@H]1CO [Compound 23, 6-Amino-1-cyclopropyl-7-[(3S)-3-(hydroxymethyl)-3,4-dihydroisoquinolin-2(1H)-yl]-4-oxo-1,4-dihydroquinoline-3-carboxylic acid] | 46.2 ± 8.38 µM | – | –
16 | CC1COc2c(N3CCN(C)CC3)c(F)cc3c(=O)c(C(=O)O)cn1c23 (centres unmarked) [ofloxacin] | – | – | RNAi enhancer / SMER effect [5]: did not show any significant RNAi enhancer effect
17 | CCn1cc(C(=O)O)c(=O)c2cc(F)c(N3CCc4ccccc4C3)c(C)c21 [Compound 31, 7-(3,4-Dihydroisoquinolin-2(1H)-yl)-1-ethyl-6-fluoro-8-methyl-4-oxo-1,4-dihydroquinoline-3-carboxylic acid] | 14.9 ± 3.24 µM | 56.6 ± 37.4 µM | –
18 | Nc1cc2c(=O)c(C(=O)O)cn(C3CC3)c2cc1N(CCO)Cc1ccccc1 [Compound 26, 6-Amino-7-[benzyl(2-hydroxyethyl)amino]-1-cyclopropyl-4-oxo-1,4-dihydroquinoline-3-carboxylic acid] | 33.9 ± 6.43 µM | – | fold increase in GI50 SKOV-3 versus 25 ([1]; versus compound 25): 2 fold
19 | O=C(O)c1cn(C2CC2)c2nc(N3CCc4ccccc4C3)c(F)cc2c1=O [Compound 28, 1-Cyclopropyl-7-(3,4-dihydroisoquinolin-2(1H)-yl)-6-fluoro-4-oxo-1,4-dihydro-1,8-naphthyridine-3-carboxylic acid] | 46.8 ± 7.44 µM | – | –
20 | Cc1c(N2CCc3ccccc3C2)c(F)cc2c(=O)c(C(=O)O)cn(C3CC3)c12 [Compound 32, 1-Cyclopropyl-7-(3,4-dihydroisoquinolin-2(1H)-yl)-6-fluoro-8-methyl-4-oxo-1,4-dihydroquinoline-3-carboxylic acid] | 25 ± 6.04 µM | 90.7 ± 30.9 µM | –
21 | Cc1c(N2CCC(c3ccccc3)CC2)c(N)cc2c(=O)c(C(=O)O)cn(C3CC3)c12 [Compound 12, 6-Amino-1-cyclopropyl-8-methyl-4-oxo-7-(4-phenylpiperidin-1-yl)-1,4-dihydroquinoline-3-carboxylic acid] | 17.1 ± 2.61 µM | 53 ± 14.9 µM | –
22 | Nc1cc2c(=O)c(C(=O)O)cn(C3CC3)c2cc1N1CCC(c2ccccc2)CC1 [Compound 24, 6-Amino-1-cyclopropyl-4-oxo-7-(4-phenylpiperidin-1-yl)-1,4-dihydroquinoline-3-carboxylic acid] | 9.19 ± 1.05 µM | 45 ± 13.4 µM | –
23 | Cc1c(N2Cc3ccccc3C2)c(N)cc2c(=O)c(C(=O)O)cn(C3CC3)c12 [Compound 13, 6-Amino-1-cyclopropyl-7-(1,3-dihydro-2H-isoindol-2-yl)-8-methyl-4-oxo-1,4-dihydroquinoline-3-carboxylic acid] | 28.8 ± 4.11 µM | – | –
24 | N.N.[Cl][Pt][Cl] [cisplatin, reference compound] | – | – | resistance of A2780 CIS to cisplatin compared to A2780 [6]: significantly greater resistance to cisplatin
25 | Cn1cc(C(=O)O)c(=O)c2ccc(N3CCN(c4nccs4)CC3)nc21 [Compound 9] | 50 µM | – | –
26 | CCN(Cc1ccccc1)c1nc2c(cc1F)c(=O)c(C(=O)O)cn2CC [Compound 29, 7-[Benzyl(ethyl)amino]-1-ethyl-6-fluoro-4-oxo-1,4-dihydro-1,8-naphthyridine-3-carboxylic acid] | 16.2 ± 1.03 µM | 25.5 ± 11.5 µM | –
27 | CC1c2ccccc2CCN1c1cc2c(cc1N)c(=O)c(C(=O)O)cn2C1CC1 (centres unmarked) [Compound 22, 6-Amino-1-cyclopropyl-7-(1-methyl-3,4-dihydroisoquinolin-2(1H)-yl)-4-oxo-1,4-dihydroquinoline-3-carboxylic acid] | 18.5 ± 1.71 µM | 59.9 ± 5.95 µM | –
28 | CCN(Cc1ccccc1)c1cc2c(cc1N)c(=O)c(C(=O)O)cn2C1CC1 [Compound 25, 6-Amino-7-[benzyl(ethyl)amino]-1-cyclopropyl-4-oxo-1,4-dihydroquinoline-3-carboxylic acid] | 16 ± 2.94 µM | 79.7 ± 11.8 µM | –
